In experiment [1] the test system is intracellular FASN in PC3 cells. The experiment in a line: Inhibition of 14C-acetate incorporation in PC3 cells. It is filed as cell-based. Particulars: for % inhibition of 14C-acetate incorp. PC3 cells: two hours drug, then two hour labeling, concentration not given. The procedure: Inhibition of ^14C-Acetate Incorporation in PC3 Cells.
This test ensures that the compound(s) target intracellular FASN correctly. The ability to inhibit FASN activity in cells will be performed by metabolic labeling of newly synthesized fatty acids with ^14C-acetate, as we have described previously. Briefly, PC-3 cells were seeded in 24-well plates at 50,000 cells per well. After 48 hours media was replaced with fresh media containing either drug or DMSO vehicle. As with the toxicity assay described below, the IC50 for the ability to inhibit FASN will also be determined. Cells will be incubated with a dose of each derivative compound that reflects the IC50's determined in the MTS assays. After two hours, 1 μCi of ^14C-acetate was added to each well for a two hour labeling period. The cells are then washed with PBS and collected by trypsinization. Lipids were finally isolated by Folch extraction and quantified by scintillation counting. The IC50 value for each compound against FASN in cells can then be determined.

Experiment [2] addresses recombinant thioesterase TE1 (recombinant FASN-TE) (Homo sapiens, UniProt P49327). As to the kind of experiment: Recombinant thioesterase inhibition assay (TE1). It is filed as biochemical. The following applies: for inhibition at 10 µM: 10 μM compound, 30 min pre-incubation at 37° C., 4-MUH substrate; for IC50: recombinant thioesterase, approximate, read-out: approx, IC50 TE1. The procedure:
(§1) Key to Table 2: Recombinant Thioesterase Inhibition Assay.
(§2) Briefly, recombinant FASN-TE (250 nM, 100 mM TRIS pH 7.4, 50 mM NaCl, 1 mM EDTA) was pre-incubated with inhibitors for 30 min at 37° C. prior to the addition of fluorogenic substrate, 4-methylumbelliferyl heptanoate (4-MUH, 120 μM) (56); the reaction was then monitored by following the increase in fluorescence using a Tecan Safire^2 96-well plate reader using 350/450 excitation/emission wavelengths. The IC50 values are then determined for each compound in the series.

Experiment [3] concerns FS-4 normal fibroblast cells. The experiment in a line: MTS cell survival assay, FS-4. In kind it is cell-based. Particulars: FS-4 normal fibroblasts, doses 1-50 μM, time point not given. The procedure:
(§3) Prostate tumor (PC3, DU145) and normal fibroblast controls (FS-4) cells were individually seeded in 96-well plates at a density of 4,000 cells per well. After 48 hours the cells are be treated with a dose of each compound (1-50 μM) or DMSO vehicle in fresh media. Cell viability of each cell line was then determined after 24, 48 and 72 hours of treatment with each compound by MTS assay (Roche). MTS assays provide a relative measure of cell viability based on the ability of mitochondria to metabolize a tetrazolium substrate to a colored formazan product. Viability is determined by colorimetric readout at 492 nm and determined relative to vehicle only treated cells. The IC50 for each drug, at each time point, will be determined by curve fitting.

For the next experiment, the system named is PC3 prostate tumor cells. As to the kind of experiment: MTS cell survival assay, PC3. It is filed as cell-based. Particulars: doses 1-50 μM, time point not given. The procedure: as §3
For orientation: Tetrazolium dyes change colour on reduction, which living cells bring about.

Experiment [4] deals with recombinant thioesterase TE2 (recombinant FASN-TE) (Homo sapiens, UniProt P49327). The experiment in a line: Recombinant thioesterase inhibition assay (TE2). It is filed as biochemical. The following applies: for inhibition at 10 µM: 10 μM compound, 30 min pre-incubation at 37° C., 4-MUH substrate; for IC50: recombinant thioesterase, approximate, read-out: approx, IC50 TE2. The procedure: as §1, §2
recombinant thioesterase TE2 (recombinant FASN-TE), sequence (P49327 2200-2511): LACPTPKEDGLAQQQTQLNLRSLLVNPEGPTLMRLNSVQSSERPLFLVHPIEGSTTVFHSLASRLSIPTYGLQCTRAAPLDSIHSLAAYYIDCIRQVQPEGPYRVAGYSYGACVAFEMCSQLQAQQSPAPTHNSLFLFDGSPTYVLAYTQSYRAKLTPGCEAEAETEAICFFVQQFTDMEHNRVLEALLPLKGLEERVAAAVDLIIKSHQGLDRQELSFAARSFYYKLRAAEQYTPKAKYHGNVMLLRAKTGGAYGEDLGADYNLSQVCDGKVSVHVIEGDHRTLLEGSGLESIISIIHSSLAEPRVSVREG

Experiment [5] concerns DU-145 prostate tumor cells. The experiment in a line: MTS cell survival assay, DU-145. It is filed as cell-based. The following applies: Homo sapiens, doses 1-50 μM, time point not given. The procedure: as §3

The results in this text go back to patent US10071076B2, “Methods of treating cancer and other disorders” (Wake Forest University Health Sciences, priority 2010, dated 2018).

recombinant thioesterase TE1 (recombinant FASN-TE), sequence (P49327 2207-2511 limits assumed): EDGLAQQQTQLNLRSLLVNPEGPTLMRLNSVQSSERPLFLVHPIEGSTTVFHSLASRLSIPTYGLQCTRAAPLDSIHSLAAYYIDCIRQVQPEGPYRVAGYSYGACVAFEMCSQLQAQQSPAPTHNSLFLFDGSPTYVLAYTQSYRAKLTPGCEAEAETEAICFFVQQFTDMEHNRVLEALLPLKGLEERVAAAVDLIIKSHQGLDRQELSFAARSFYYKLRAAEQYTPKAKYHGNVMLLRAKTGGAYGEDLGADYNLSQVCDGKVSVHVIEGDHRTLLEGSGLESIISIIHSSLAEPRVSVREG

The term inhibition denotes the relative decrease from the control value, in per cent. The term IC50 denotes the concentration needed to halve the response being measured. As for `CCOC(=O)c1n[nH]c2c1C(=O)C(SCC(=O)Nc1ccccc1)=CC2=O` [TPI-00422-00-A], the “% inhibition of 14C-acetate incorp. PC3 cells” value (“% inhibition” below) in experiment [1] came out at 0%. Moreover, the figures for the inhibition at 10 µM in experiment [2] and in experiment [4] were 22.9% and 86.8%, respectively. Further, the IC50 in experiment [3] was over 50 µM; in the experiment on PC3 prostate tumor cells it was 48 µM.
With `C=C1C=C(SCC)C(=O)c2c(C(=O)OCC)n[nH]c21` [TPI-00402-00-A], the “% inhibition” value in experiment [1] is listed as 90.4%. The inhibition at 10 µM in experiment [2] turned out to be 66.6%; in experiment [4], 95.7%. For the same compound, the concentration for half-maximal inhibition (IC50) in experiment [2] is about 2.35 µM; in experiment [3] it was 20.9 µM; with PC3 prostate tumor cells, 18.8 µM; in experiment [5], 40 µM; in experiment [4], about 0.56 µM.
In the case of `CCOC(=O)c1n[nH]c2c1C(=O)C(SCc1ccc(F)cc1F)=CC2=O` [TPI-00407-00-A], the “% inhibition” value in experiment [1] was 37.8%. In addition, the inhibition at 10 µM in experiment [2] came out at 66%; in experiment [4], 94.9%.
As for `CCOC(=O)c1n[nH]c2c1C(=O)C(SCc1ccco1)=CC2=O` [TPI-00418-00-A], in experiment [1], the “% inhibition” value is 92.2%. Further, the values for the inhibition at 10 µM in experiment [2] and in experiment [4] were 65.5% and 95.9%, respectively. Further, the half-maximal inhibitory concentration (IC50) in experiment [3] worked out at 37 µM; with PC3 prostate tumor cells, 31.7 µM.
In the case of `CCOC(=O)c1n[nH]c2c1C(=O)C(SCC(=O)NC)=CC2=O` [TPI-00409-00-A], in experiment [1], the “% inhibition” value stood at 0%. The inhibition at 10 µM worked out at 53.5% in experiment [2] and 92.2% in experiment [4].
Take `CCOC(=O)c1n[nH]c2c1C(=O)C(Sc1ccccc1)=CC2=O` [TPI-00415-00-A]: the “% inhibition” value in experiment [1] stood at 7.05%. Besides, the results for the inhibition at 10 µM in experiment [2] and in experiment [4] were 79.7% and 97.5%, respectively.
Consider `CCOC(=O)c1n[nH]c2c1C(=O)C(Sc1cccc(OC)c1)=CC2=O` [TPI-00412-00-A], for which the “% inhibition” value in experiment [1] is on record as 9.95%. Also, the inhibition at 10 µM is 81.6% in experiment [2] and 98% in experiment [4].
Consider `CCOC(=O)c1n[nH]c2c1C(=O)C(SCC(=O)OC)=CC2=O` [TPI-00405-00-A], for which, in experiment [2], the inhibition at 10 µM amounted to 69.5% and the concentration for half-maximal inhibition (IC50) is about 2.78 µM. Also, in experiment [4], the inhibition at 10 µM is 96.8% and the IC50 is about 0.41 µM.
As for `CCOC(=O)c1n[nH]c2c1C(=O)C(SC1CCCC1)=CC2=O` [TPI-00414-00-A], the “% inhibition” value in experiment [1] came to 92.4%. In addition, the inhibition at 10 µM in experiment [2] was 52.2%; in experiment [4] it was 86.4%. For the same compound, the concentration for half-maximal inhibition (IC50) came out at 33 µM in experiment [3] and 25 µM in the experiment on PC3 prostate tumor cells.
Consider `COc1cc(O)c2onc(-c3ccccc3)c2c1O` [TPI-00401-00-A], for which the “% inhibition” value in experiment [1] was determined as 29.1%. Besides, the inhibition at 10 µM in experiment [2] came out at 40%; in experiment [4], 55.9%. Also, the IC50 in the experiment on PC3 prostate tumor cells is 33 µM; in experiment [5] it was over 50 µM.
Consider `CCOC(=O)c1n[nH]c2c1C(=O)C(SCc1ccc(Cl)cc1)=CC2=O` [TPI-00417-00-A], for which the “% inhibition” value in experiment [1] is recorded as 96.1%. Further, the inhibition at 10 µM in experiment [2] was found to be 74.8%; in experiment [4], 97.8%. For the same compound, the IC50 was determined as 21 µM in experiment [3] and 13.8 µM with PC3 prostate tumor cells.
Consider `C=C1C=C(S)C(=O)c2c(C(=O)OCC)n[nH]c21` [TPI-00403-00-A], for which the IC50 was 6.75 µM in experiment [1] (Homo sapiens, PC-3, read-out: IC50 of inhibition of 14C-acetate incorp. PC3 cells); about 3.9 µM in experiment [2]; 9.15 µM in experiment [3]; 3.25 µM in the experiment with PC3 prostate tumor cells; 15.6 µM in experiment [5]; about 2.42 µM in experiment [4]. The “% inhibition” value in experiment [1] was determined as 97%. Moreover, the inhibition at 10 µM in experiment [2] is 69.3%; in experiment [4] it was 79.3%.
As to `CCOC(=O)c1n[nH]c2c1C(=O)C(SCc1cccc(F)c1)=CC2=O` [TPI-00406-00-A], the “% inhibition” value in experiment [1] is listed as 37.7%. The inhibition at 10 µM in experiment [2] was 73.6%; in experiment [4], 96%.
Take `CNC(=O)CSC1=CC(=O)c2[nH]ncc2C1=O` [TPI-00421-00-A]: in experiment [1], the “% inhibition” value is 70%. Also, the inhibition at 10 µM in experiment [2] and in experiment [4] was 100% in each case. Besides, the IC50 was about 1.02 µM in experiment [2], 41 µM in experiment [3] and 17.9 µM with PC3 prostate tumor cells.
`CCOC(=O)c1n[nH]c2c1C(=O)C(SCc1ccc(C(F)(F)F)cc1)=CC2=O` [TPI-00408-00-A]: the “% inhibition” value in experiment [1] is given as 89.9%. Besides, the results for the inhibition at 10 µM in experiment [2] and in experiment [4] were 67.9% and 96.2%, respectively. For the same compound, the figures for the IC50 (in experiment [3]; in the experiment on PC3 prostate tumor cells) were 22.5 µM and 18.5 µM, respectively.
Turning to `O=C(Nc1ccccc1)c1n[nH]c2c1C(=O)C(SCCCCO)=CC2=O` [TPI-00423-00-A], the “% inhibition” value in experiment [1] was determined as 87.25%. Further, the inhibition at 10 µM in experiment [2] amounted to 79.8%; in experiment [4], 98%. The half-inhibitory concentration (IC50) was found to be 25 µM in experiment [3] and 20 µM in the experiment with PC3 prostate tumor cells.
In the case of `CCOC(=O)c1n[nH]c2c1C(=O)C(SCCC(=O)OC)=CC2=O` [TPI-00420-00-A], in experiment [1], the “% inhibition” value was determined as 68.5%. For the same compound, the inhibition at 10 µM in experiment [2] came to 62%; in experiment [4], 95.3%. Besides, the figures for the IC50 (in experiment [3]; with PC3 prostate tumor cells) were 42 µM and 37.5 µM, respectively.
Consider `CCOC(=O)c1n[nH]c2c1C(=O)C(SCCCCO)=CC2=O` [TPI-00410-00-A], for which, in experiment [1], the “% inhibition” value is 1.85%. Moreover, the inhibition at 10 µM in experiment [2] stood at 59.6%; in experiment [4] it was 91.7%.
In the case of `O=C(Nc1ccccc1)c1n[nH]c2c1C(=O)C(SCc1ccc(C(F)(F)F)cc1)=CC2=O` [TPI-00424-00-A], in experiment [1], the “% inhibition” value was found to be 0%. Also, the inhibition at 10 µM came to 92.6% in experiment [2] and 100% in experiment [4]. Besides, the values for the IC50 (in experiment [3]; in the experiment with PC3 prostate tumor cells) were 50 µM and 27 µM, respectively.
As for `CCOC(=O)c1n[nH]c2c1C(=O)C(SCc1ccc(OC)cc1)=CC2=O` [TPI-00416-00-A], the “% inhibition” value in experiment [1] came to 89.9%. In addition, the inhibition at 10 µM in experiment [2] came out at 64.3%; in experiment [4], 96.5%. Also, the IC50 was 33 µM in experiment [3] and 25.8 µM in the experiment on PC3 prostate tumor cells.
As for `CCCCCCCSC1=CC(=O)c2[nH]nc(C(=O)OCC)c2C1=O` [TPI-00419-00-A], the “% inhibition” value in experiment [1] amounted to 67.95%. Further, the inhibition at 10 µM in experiment [2] was found to be 66.2%; in experiment [4], 95.8%. In addition, the IC50 was determined as 50 µM in experiment [3] and 32 µM in the experiment on PC3 prostate tumor cells.
With `CCOC(=O)c1n[nH]c2c1C(=O)C(SCCOCCOC)=CC2=O` [TPI-00413-00-A], the “% inhibition” value in experiment [1] amounted to 20.2%. Besides, the values for the inhibition at 10 µM in experiment [2] and in experiment [4] were 50.2% and 94.8%, respectively.
Consider `CCOC(=O)c1n[nH]c2c1C(=O)C(Sc1ccc(-c3ccccc3)cc1)=CC2=O` [TPI-00411-00-A], for which, in experiment [1], the “% inhibition” value turned out to be 0.75%. For the same compound, the inhibition at 10 µM came to 70.5% in experiment [2] and 97.4% in experiment [4].
